Test [1] relates to STZ-induced diabetic rats. Set-up: method as in PMID 20506690. Particulars: oral administration for 45 days, 100 mg/kg bw; cited from earlier work.
The target of test [2] is T1, fructose-1,6-bisphosphatase (FBPase) (Rattus norvegicus, UniProt P19112).
T1 construct: Enzymatic activity started by adding rat liver cytosolic supernatant diluted 9:1; from tissue; host or cells: rat liver cytosolic supernatant
T1 sequence (P19112 2-363 limits assumed): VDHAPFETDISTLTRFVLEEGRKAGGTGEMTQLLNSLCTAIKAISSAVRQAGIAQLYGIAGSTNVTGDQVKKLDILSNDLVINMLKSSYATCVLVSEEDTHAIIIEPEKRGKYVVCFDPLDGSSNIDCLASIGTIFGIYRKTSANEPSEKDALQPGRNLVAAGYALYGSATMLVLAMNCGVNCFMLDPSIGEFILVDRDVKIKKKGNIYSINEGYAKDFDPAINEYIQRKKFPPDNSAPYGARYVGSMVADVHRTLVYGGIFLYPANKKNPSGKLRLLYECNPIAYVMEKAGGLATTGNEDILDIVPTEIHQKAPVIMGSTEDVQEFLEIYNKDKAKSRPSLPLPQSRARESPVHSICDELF
Nature of the test: Inhibition assay of fructose-1,6-bisphosphatase (FBPase). In kind it is biochemical. The following applies: rat liver cytosolic supernatant; for IC50: mean ± SEM of two assays in duplicate. The protocol: Buffer (5 μM EDTA, 5 mM MgCl2, 50 mM Tris-HCl, pH 7.2) enriched with 0.1 mM of fructose-1,6-bisphosphate was added and incubated for 5 min with different concentrations of inhibitor or samples (adenosine 5′-monophosphate or compounds) in reaction mixtures of 1 mL. Enzymatic activity started by adding rat liver cytosolic supernatant diluted 9:1 and, 15 min later, ended with the addition of a color reagent previously prepared by mixing 1 volume of 7.5% ammonium molybdate and 0.17% TWEEN 20 with 4 volumes of stock solution (0.12% malachite green in 5 volumes of water with 1 volume of H2SO4). Finally, the reaction mixtures were incubated for 10 min at room temperature and measured at 630 nm.

In test [3] the target is T2, glucose-6-phosphatase (G6Pase) (Rattus norvegicus, UniProt P43428).
T2 sequence (P43428 1-357): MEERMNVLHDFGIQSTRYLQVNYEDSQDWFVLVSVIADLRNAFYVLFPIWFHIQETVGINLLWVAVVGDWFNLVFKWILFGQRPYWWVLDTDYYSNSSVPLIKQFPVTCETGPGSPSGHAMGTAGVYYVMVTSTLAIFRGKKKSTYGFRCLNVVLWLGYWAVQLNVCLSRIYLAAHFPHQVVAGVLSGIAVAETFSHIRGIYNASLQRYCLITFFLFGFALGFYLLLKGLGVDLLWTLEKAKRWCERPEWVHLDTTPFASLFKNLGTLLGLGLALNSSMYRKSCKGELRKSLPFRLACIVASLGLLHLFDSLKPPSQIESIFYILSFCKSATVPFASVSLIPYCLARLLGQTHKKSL
The experiment in a line: Inhibition assay of glucose-6-phosphatase (G6Pase). In kind it is biochemical. Particulars: rat liver microsomal fractions. Here is the method: Rat liver microsomal fractions isolated through differential centrifugation were diluted 1:1 in buffer (40 mM imidazole, 250 mM sucrose, pH 7) and added to reaction mixtures, containing buffer and different concentrations of inhibitor samples (chlorogenic acid or compounds). Enzymatic activity started by adding 20 mM of glucose-6-phosphate (G6P). Next, the mixtures were incubated at 22 °C for 20 min and ended with the addition of 900 μL of a solution of 0.42% ammonium molybdate in 1 N H2SO4, 10% SDS, and 10% ascorbic acid. Finally, they were incubated at 45 °C for 20 min and measured at 830 nm.

The next test deals with α-amylase. Further details: method as in PMID 24825096. The following applies: cited from earlier work.
Another test concerns the target α-glucosidase. Set-up: method as in PMID 24825096. Particulars: cited from earlier work.
Another test deals with db/db mouse. Set-up: method as in PMID 16644902. Particulars: treated for 5 weeks; cited from earlier work.
Another test deals with ALR-1. Further details: method as in earlier work. Particulars: read-out: ALR1 IC50; cited from earlier work.
The test system of a further test is ALR-2. Set-up: method as in earlier work. Particulars: read-out: ALR2 IC50; cited from earlier work.
For test [4], the system named is STZ-induced diabetic rats. Further details: method as in PMID 21433280. The following applies: 4 days of ad libitum consumption; cited from earlier work.
Test [5] deals with high-fat diet model-STZ-induced rats. Set-up: method as in doi:10.1016/j.bionut.2014.03.006. Particulars: consumption for 30 days; cited from earlier work.

The values below come from paper PMC9002393, “Phytochemical Study of Eryngium cymosum F. Delaroche and the Inhibitory Capacity of Its Main Compounds on Two Glucose-Producing Pathway Enzymes” (Plants, 2022).

Consider `O=C(O)c1ccc(O)c(O)c1` [protocatechuic acid (3), protocatechuic acid], for which, in test [1], the plasma glucose entry is recorded as “decrease in plasma glucose” and the plasma insulin result is recorded as “increase in plasma insulin”.
Take `Nc1ncnc2c1ncn2[C@@H]1O[C@H](COP(=O)(O)O)[C@@H](O)[C@H]1O` [Adenosine 5′-monophosphate, reference compound]: the IC50 in test [2] is 48.7 µM.
`O=C(O)/C=C/c1ccc(O)c(O)c1` [Caffeic acid (4), caffeic acid]: the “inhibition over G6Pase (in words)” value in [3] is listed as “modest inhibition”. Besides, the “inhibition over FBPase (in words)” value in test [2] is recorded as “no inhibition”. Also, on α-amylase, the “α-amylase IC50” value is 3.68 µg/mL. For the same compound, on α-glucosidase, the “α-glucosidase IC50” value was 4.98 µg/mL. In the test on db/db mouse, the blood insulin levels result is “blood insulin levels increased” and the plasma glucose levels result is given as “plasma glucose levels decreased”.
Regarding `CCCC(CCC)C(=O)O` [valproic acid], the IC50 with ALR-1 is 57.4 ± 0.89 µM.
Take `O=C1NC(=O)[C@@]2(CCOc3ccc(F)cc32)N1` [sorbinil]: the IC50 in the test on ALR-2 was 3.14 ± 0.02 µM.
Regarding `O=C(/C=C/c1ccc(O)c(O)c1)O[C@H](Cc1ccc(O)c(O)c1)C(=O)O` [rosmarinic acid (2), rosmarinic acid], the blood glucose levels result in test [4] is “blood glucose levels were decreased”. Moreover, in test [5], the blood glucose levels entry was “decrease in blood glucose levels” and the plasma insulin entry is given as “increase in plasma insulin”.
Consider `O=C(/C=C/c1ccc(O)cc1)OC[C@H]1O[C@@H](Oc2c(-c3ccc(O)cc3)oc3cc(O)cc(O)c3c2=O)[C@H](OC(=O)/C=C/c2ccc(O)cc2)[C@@H](O)[C@@H]1O` [kaempferol-3-O-(2,6-di-O-trans-ρ-coumaryl)-β-D-glucopyranoside], for which, in test [3], the “inhibition over G6Pase (in words)” value was “important inhibition”. Besides, in test [2], the “inhibition over FBPase (in words)” value is “important inhibition” and half-maximal inhibition (IC50) required 70.9 µM.
